Test: Dissolution testing of IBU-loaded mesoporous particles (USP I rotating basket)
Type: physicochemical
Conditions: after 120 mins; pH 3.0 medium + 0.25% SLS, 900 mL, 37° C., 100 rpm, 50 mg IBU in HPMC capsule
Experimental: Testing conditions: HCL-NaCl medium pH 3+0.25% SLS, 900 mL, USP apparatus 1 (rotating basket), 100 rpm, HPLC method (mobile phase: pH 3 phosphate buffer:acetonitrile (60:40); column: C18, 15 cm×4.6 mm, 5 μm; flow rate: 2 mL/min; injection volume: 20 μL; detector: UV, 254 nm).
Dissolution testing of IBU-loaded mesoporous particles as prepared in Example 4 was performed by using USP I apparatus (rotating basket, 100 rpm) in an Erweka DT 126 dissolution tester. Samples containing 50 mg of IBU were loaded into a HPMC hard-shell capsule and tested in 900 mL of pH 3.0 medium with 0.25% SLS at 37° C. The pH 3 medium was prepared by dissolving 2 g of sodium chloride and 2.5 g of SLS in 400 mL of deionised water, then adding 0.1 mL of hydrochloric acid 37%, and diluting with deionised water to 1000.0 mL. The concentrations of dissolved IBU were determined using a HPLC method with mobile phase of phosphate buffer pH 3: acetonitrile (60:40), C18 column (15 cm×4.6 mm, 5 μm), flow rate of 2 mL/min, injection volume of 20 μL, and UV detector at 254 nm in an Agilent 1200 HPLC system.

Ibuprofen dissolved: 73.4%
Compound: CC(C)Cc1ccc(C(C)C(=O)O)cc1 (stereo not shown) [Ibuprofen raw material, Ibuprofen]

Reference: patent publication US20220354791A1, “MESOPOROUS POLYMERIC PARTICULATE MATERIAL” (Aston University, priority 2019, published 2022)
